Results from ChEMBL document CHEMBL1201862, “PubChem BioAssay data set” (2004).
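96-well plates; 48 h exposure; 5 concentrations. Endpoints by linear interpolation between flanking doses. Not reached: highest tested concentration assigned. GI50 = concentration required for 50% inhibition of growth.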 Active and inactive are the calls of the source. No stated cut-off is given here; in the data, active = GI50 up to about 1.1 µM and inactive = higher.

Tests used:
Test in all cases: NCI-60 cell line screen, 48 h
[1] = test system: MDA-N
[2] = test system: SF-539
[3] = test system: CCRF-CEM
[4] = test system: OVCAR-8
[5] = test system: UO-31
[6] = test system: NCI/ADR-RES
[7] = test system: MDA-MB-231
[8] = test system: 786-0
[9] = test system: OVCAR-3
[10] = test system: UACC-257
[11] = test system: HCT-15
[12] = test system: NCI-H460
[13] = test system: SK-MEL-5
[14] = test system: HCT-116
[15] = test system: HOP-62
[16] = test system: SN12C
[17] = test system: COLO 205
[18] = test system: EKVX
[19] = test system: MDA-MB-435
[20] = test system: HCC 2998

`C1CN2CCNCCN(CCN1)CC2` was tested, and the GI50 [1] was > 100 µM (inactive), the GI50 [2] was > 100 µM (inactive) and the GI50 [3] was 3.9 µM (inactive). The GI50 [4] was > 100 µM (inactive), the GI50 [5] was > 100 µM (inactive) and the GI50 [6] was > 100 µM (inactive). The GI50 [7] was > 100 µM (inactive), the GI50 [8] was > 100 µM (inactive) and the GI50 [9] was > 100 µM (inactive). For the same compound, the GI50 [10] was > 100 µM (inactive), the GI50 [11] was over 100 µM and the GI50 [12] was > 100 µM (inactive). For the same compound, the GI50 [13] was > 100 µM (inactive), the GI50 [14] was > 100 µM (inactive) and the GI50 [15] was > 100 µM (inactive). The GI50 [16] was > 100 µM (inactive), the GI50 [17] was > 100 µM (inactive) and the GI50 [18] was > 100 µM (inactive). For the same compound, the GI50 [19] was > 100 µM (inactive).
In the case of `O=S(=O)(O)c1cccc2ccc(O)c(/N=N\c3ccc(S(=O)(=O)c4ccc(/N=N/c5c(O)ccc6cccc(S(=O)(=O)O)c56)cc4)cc3)c12`, the GI50 [1] was > 100 µM (inactive), the GI50 [3] was > 100 µM (inactive) and the GI50 [4] was > 100 µM (inactive). The GI50 [5] was 63.4 µM (inactive), the GI50 [6] was > 100 µM (inactive) and the GI50 [7] was > 100 µM (inactive). For the same compound, the GI50 [8] was > 100 µM (inactive), the GI50 [9] was > 100 µM (inactive) and the GI50 [10] was > 100 µM (inactive). The GI50 [11] was over 100 µM, the GI50 [13] was > 100 µM (inactive) and the GI50 [14] was > 100 µM (inactive). For the same compound, the GI50 [15] was > 100 µM (inactive), the GI50 [16] was > 100 µM (inactive) and the GI50 [17] was > 100 µM (inactive). The GI50 [18] was > 100 µM (inactive) and the GI50 [19] was > 100 µM (inactive).
With `COc1cc(/C=N/NC(=O)c2ccc(NC(C)=O)cc2OC)ccc1O` the GI50 [1] was > 100 µM (inactive), the GI50 [2] was 39.2 µM (inactive) and the GI50 [3] was > 100 µM (inactive). The GI50 [4] was > 100 µM (inactive), the GI50 [5] was > 100 µM (inactive) and the GI50 [6] was > 100 µM (inactive). For the same compound, the GI50 [8] was > 100 µM (inactive), the GI50 [9] was > 100 µM (inactive) and the GI50 [11] was 76.6 µM. For the same compound, the GI50 [13] was > 100 µM (inactive), the GI50 [14] was 61.8 µM (inactive) and the GI50 [16] was > 100 µM (inactive). For the same compound, the GI50 [17] was 56.1 µM (inactive), the GI50 [18] was 77.6 µM (inactive) and the GI50 [19] was > 100 µM (inactive).
In the case of `Nc1ccc(-c2nc3ccc(F)cc3s2)cc1`, the GI50 [1] was 39.4 µM (inactive), the GI50 [2] was 36.4 µM (inactive) and the GI50 [3] was 19.1 µM (inactive). For the same compound, the GI50 [4] was 48.3 µM (inactive), the GI50 [5] was 26 µM (inactive) and the GI50 [6] was 33.9 µM (inactive). For the same compound, the GI50 [7] was 25.3 µM (inactive), the GI50 [8] was 35.4 µM (inactive) and the GI50 [9] was 22.5 µM (inactive). The GI50 [10] was 43.2 µM (inactive), the GI50 [11] was 35.8 µM and the GI50 [13] was 15.3 µM (inactive). For the same compound, the GI50 [14] was 36.6 µM (inactive), the GI50 [15] was 29.5 µM (inactive) and the GI50 [16] was 33 µM (inactive). For the same compound, the GI50 [17] was 17.9 µM (inactive), the GI50 [18] was 32 µM (inactive) and the GI50 [19] was 25.9 µM (inactive).
`CC(C)=CCN1c2ccccc2NC(=O)CC1C` (stereo not given) was tested, and the GI50 [2] was > 100 µM (inactive), the GI50 [3] was > 100 µM (inactive) and the GI50 [4] was > 100 µM (inactive). For the same compound, the GI50 [5] was 83.4 µM (inactive), the GI50 [6] was 49.8 µM (inactive) and the GI50 [7] was > 100 µM (inactive). For the same compound, the GI50 [8] was > 100 µM (inactive), the GI50 [9] was 70.6 µM (inactive) and the GI50 [10] was 28.8 µM (inactive). For the same compound, the GI50 [20] was > 100 µM (inactive), the GI50 [11] was over 100 µM and the GI50 [12] was > 100 µM (inactive). For the same compound, the GI50 [13] was 29.3 µM (inactive), the GI50 [15] was > 100 µM (inactive) and the GI50 [16] was 33.3 µM (inactive). For the same compound, the GI50 [17] was > 100 µM (inactive), the GI50 [18] was 51.3 µM (inactive) and the GI50 [19] was > 100 µM (inactive).
For `Oc1ccc(Cc2cc(Cl)cc(Cl)c2O)cc1Cl`, the GI50 [1] was 8.93 µM (inactive), the GI50 [2] was 17.1 µM (inactive) and the GI50 [4] was 19 µM (inactive). The GI50 [5] was 15.7 µM (inactive), the GI50 [6] was 18.3 µM (inactive) and the GI50 [7] was 18.6 µM (inactive). The GI50 [8] was 20.3 µM (inactive), the GI50 [9] was 18.7 µM (inactive) and the GI50 [10] was 15.9 µM (inactive). The GI50 [11] was 16.9 µM, the GI50 [12] was 17.8 µM (inactive) and the GI50 [13] was 17.5 µM (inactive). The GI50 [14] was 18.7 µM (inactive), the GI50 [15] was 19.2 µM (inactive) and the GI50 [16] was 15.1 µM (inactive). The GI50 [17] was 19 µM (inactive), the GI50 [18] was 19.4 µM (inactive) and the GI50 [19] was 8.83 µM (inactive).
In the case of `NC(=S)N/N=C1\CCCCc2ccccc21`, the GI50 [1] was > 10 µM (inactive), the GI50 [3] was > 10 µM (inactive) and the GI50 [4] was > 10 µM (inactive). The GI50 [5] was > 10 µM (inactive), the GI50 [6] was > 10 µM (inactive) and the GI50 [8] was > 10 µM (inactive). The GI50 [9] was > 10 µM (inactive), the GI50 [10] was > 10 µM (inactive) and the GI50 [20] was > 10 µM (inactive). For the same compound, the GI50 [11] was over 10 µM, the GI50 [12] was > 10 µM (inactive) and the GI50 [14] was > 10 µM (inactive). The GI50 [15] was > 10 µM (inactive), the GI50 [16] was > 10 µM (inactive) and the GI50 [17] was > 10 µM (inactive). For the same compound, the GI50 [18] was > 10 µM (inactive) and the GI50 [19] was > 10 µM (inactive).
With `CC(C)[Si](OC1=C(C(=O)N(C)c2ccccc2Cl)CCC1)(C(C)C)C(C)C` the GI50 [1] was 19.8 µM (inactive), the GI50 [2] was 22.9 µM (inactive) and the GI50 [4] was 17 µM (inactive). The GI50 [5] was 15.8 µM (inactive), the GI50 [6] was 16.2 µM (inactive) and the GI50 [7] was 16 µM (inactive). For the same compound, the GI50 [8] was 21.7 µM (inactive), the GI50 [9] was 16.7 µM (inactive) and the GI50 [10] was 19 µM (inactive). For the same compound, the GI50 [11] was 16.5 µM, the GI50 [12] was 22.4 µM (inactive) and the GI50 [13] was 24.8 µM (inactive). For the same compound, the GI50 [14] was 19.5 µM (inactive), the GI50 [15] was 17.6 µM (inactive) and the GI50 [16] was 16.7 µM (inactive). For the same compound, the GI50 [17] was 17.8 µM (inactive), the GI50 [18] was 16.9 µM (inactive) and the GI50 [19] was 19 µM (inactive).
